# Test results from patent US8835462B2, “Macrocyclic picolinamides as fungicides” (Dow AgroSciences LLC, priority 2012, dated 2014).
# Like-named read-outs stand apart in the source and are kept apart here.
# Key:
# Assay type in all cases: in vivo
# [1] = test system: Glomerella lagenarium; Anamorph: Colletotricum lagenarium; assay: Cucumber anthracnose (COLLLA) fungicidal activity; settings: Colletotrichum orbiculare, 24 h, 1 Day Protectant, read-out: Disease Control COLLLA 1DP
# Experimental: Technical grades of materials were dissolved in acetone, which were then mixed with nine volumes of water containing 110 ppm Triton X-100. The fungicide solutions were applied onto wheat seedlings using an automated booth sprayer to run-off. All sprayed plants were allowed to air dry prior to further handling. Wheat plants (variety Yuma) were grown from seed in a greenhouse in 50% mineral soil/50% soil-less Metro mix until the first leaf was fully emerged, with 7-10 seedlings per pot. These plants were inoculated with an aqueous spore suspension of Septoria tritici either prior to or after fungicide treatments. After inoculation the plants were kept in 100% relative humidity (one day in a dark dew chamber followed by two to three days in a lighted dew chamber at 20° C.) to permit spores to germinate and infect the leaf. The plants were then transferred to a greenhouse set at 20° C. for disease to develop. When disease symptoms were fully expressed on the 1st leaves of untreated plants, infection levels were assessed on a scale of 0 to 100 percent disease severity. Percent disease control was calculated using the ratio of disease severity on treated plants relative to untreated plants. Evaluation of Fungicidal Activity: Cucumber Anthracnose (Glomerella Lagenarium; Anamorph: Colletotricum Lagenarium; Bayer Code COLLLA) Cucumber seedlings (variety Bush Pickle) were propagated in soil-less Metro mix, with each pot having one plant, and used in the test when 12 to 14 days old. Test plants were inoculated with an aqueous spore suspension of Colletotricum lagenarium 24 hr after fungicide treatments. After inoculation the plants were kept in a dew room at 22° C. with 100% relative humidity for 48 hr to permit spores to germinate and infect the leaf. The plants were then transferred to a growth room set at 22° C. for disease to develop. Fungicide formulation, application and disease assessment on the sprayed leaves followed the procedures as described in the Example A.
# [2] = test system: Cercospora beticola; assay: Leaf spot of sugar beets (CERCBE) fungicidal activity; settings: 24 h, 1 Day Protectant, sugar beet, read-out: Disease Control CERCBE 1DP
# Experimental: Technical grades of materials were dissolved in acetone, which were then mixed with nine volumes of water containing 110 ppm Triton X-100. The fungicide solutions were applied onto wheat seedlings using an automated booth sprayer to run-off. All sprayed plants were allowed to air dry prior to further handling. Wheat plants (variety Yuma) were grown from seed in a greenhouse in 50% mineral soil/50% soil-less Metro mix until the first leaf was fully emerged, with 7-10 seedlings per pot. These plants were inoculated with an aqueous spore suspension of Septoria tritici either prior to or after fungicide treatments. After inoculation the plants were kept in 100% relative humidity (one day in a dark dew chamber followed by two to three days in a lighted dew chamber at 20° C.) to permit spores to germinate and infect the leaf. The plants were then transferred to a greenhouse set at 20° C. for disease to develop. When disease symptoms were fully expressed on the 1st leaves of untreated plants, infection levels were assessed on a scale of 0 to 100 percent disease severity. Percent disease control was calculated using the ratio of disease severity on treated plants relative to untreated plants. Evaluation of Fungicidal Activity: Leaf Spot of Sugar Beets (Cercospora Beticola; Bayer Code CERCBE) Sugar beet plants (variety HH88) were grown in soil-less Metro mix and trimmed regularly to maintain an uniform plant size prior to test. Plants were inoculated with a spore suspension 24 hr after fungicide treatments. Inoculated plants were kept in a dew chamber at 22° C. for 48 hr then incubated in a greenhouse set at 24° C. under a clear plastic hood with bottom ventilation until disease symptoms were fully expressed. Fungicide formulation, application and disease assessment on the sprayed leaves followed the procedures as described in the Example A.
# [3] = test system: Mycosphaerella graminicola; Anamorph: Septoria tritici; assay: Leaf blotch of wheat (SEPTTR) fungicidal activity on wheat seedlings; settings: Zymoseptoria tritici
# Experimental: Evaluation of Fungicidal Activity: Leaf Blotch of Wheat (Mycosphaerella Graminicola; Anamorph: Septoria tritici; Bayer Code […]) Technical grades of materials were dissolved in acetone, which were then mixed with nine volumes of water containing 110 ppm Triton X-100. The fungicide solutions were applied onto wheat seedlings using an automated booth sprayer to run-off. All sprayed plants were allowed to air dry prior to further handling. Wheat plants (variety Yuma) were grown from seed in a greenhouse in 50% mineral soil/50% soil-less Metro mix until the first leaf was fully emerged, with 7-10 seedlings per pot. These plants were inoculated with an aqueous spore suspension of Septoria tritici either prior to or after fungicide treatments. After inoculation the plants were kept in 100% relative humidity (one day in a dark dew chamber followed by two to three days in a lighted dew chamber at 20° C.) to permit spores to germinate and infect the leaf. The plants were then transferred to a greenhouse set at 20° C. for disease to develop. When disease symptoms were fully expressed on the 1st leaves of untreated plants, infection levels were assessed on a scale of 0 to 100 percent disease severity. Percent disease control was calculated using the ratio of disease severity on treated plants relative to untreated plants.
# [4] = test system: Blumeria graminis f. sp. hordei; assay: Barley powdery mildew (ERYSGH) fungicidal activity; settings: 24 h, 1 Day Protectant, read-out: Disease Control ERYSGH 1DP
# Experimental: Technical grades of materials were dissolved in acetone, which were then mixed with nine volumes of water containing 110 ppm Triton X-100. The fungicide solutions were applied onto wheat seedlings using an automated booth sprayer to run-off. All sprayed plants were allowed to air dry prior to further handling. Wheat plants (variety Yuma) were grown from seed in a greenhouse in 50% mineral soil/50% soil-less Metro mix until the first leaf was fully emerged, with 7-10 seedlings per pot. These plants were inoculated with an aqueous spore suspension of Septoria tritici either prior to or after fungicide treatments. After inoculation the plants were kept in 100% relative humidity (one day in a dark dew chamber followed by two to three days in a lighted dew chamber at 20° C.) to permit spores to germinate and infect the leaf. The plants were then transferred to a greenhouse set at 20° C. for disease to develop. When disease symptoms were fully expressed on the 1st leaves of untreated plants, infection levels were assessed on a scale of 0 to 100 percent disease severity. Percent disease control was calculated using the ratio of disease severity on treated plants relative to untreated plants. Evaluation of Fungicidal Activity: Barley Powdery Mildew (Blumeria Graminis f. sp. Hordei; Synonym: Erysiphe Graminis f. sp. Hordei; Bayer Code […]) Barley seedlings (variety Harrington) were propagated in soil-less Metro mix, with each pot having 8 to 12 plants, and used in the test when first leaf was fully emerged. Test plants were inoculated by dusting with infected stock plants 24 hr after fungicide treatments. After inoculation the plants were kept in a greenhouse set at 20° C. for disease to develop. Fungicide formulation, application and disease assessment on the sprayed leaves followed the procedures as described in the Example A.
# [5] = test system: Magnaporthe grisea; Anamorph: Pyricularia oryzae; assay: whole plant or invertebrate; settings: 24 h, read-out: Disease Control PYRIOR 1DP
# [6] = 24 h, 1 Day Protectant, read-out: Disease Control SEPTTR 1 DP
# [7] = 72 h, 3 Day Curative, read-out: Disease Control SEPTTR 3 DC
Compound,pest or weed control at 100 ppm [1],pest or weed control at 100 ppm [2],"pest or weed control at 100 ppm [3, 6]","pest or weed control at 100 ppm [3, 7]",pest or weed control at 100 ppm [4],pest or weed control at 100 ppm [5]
COc1ccnc(C(=O)N[C@H]2COC[C@H](Cc3ccccc3)[C@@H](OC(=O)c3ccccc3)[C@H](C)OC2=O)c1OCOC(C)=O [Compound 37],80 to 100%,80 to 100%,80 to 100%,80 to 100%,0 to 80%,80 to 100%
COc1ccnc(C(=O)N[C@H]2COC[C@H](Cc3ccccc3)[C@@H](OCC(C)C)[C@H](C)OC2=O)c1OCOC(=O)C(C)(C)C [Compound 7],,80 to 100%,80 to 100%,80 to 100%,80 to 100%,
"COc1ccnc(C(=O)N[C@H]2COC[C@H](Cc3ccccc3)[C@@H](OCC(C)C)[C@H](C)OC2=O)c1O [Compound 2, N-((3S,7S,8R,9S)-7-benzyl-8-isobutoxy-9-methyl-2-oxo-1,5-dioxonan-3-yl)-3-hydroxy-4-methoxypicolinamide]",,,80 to 100%,80 to 100%,,80 to 100%
COc1ccnc(C(=O)N[C@H]2COC[C@H](Cc3ccccc3)[C@@H](OCCC(=O)N(C)C)[C@H](C)OC2=O)c1OCOC(C)=O [Compound 15],0 to 80%,0 to 80%,0 to 80%,0 to 80%,,0 to 80%
COc1ccnc(C(=O)N[C@H]2COC[C@H](Cc3ccccc3)[C@@H](OC3CCCC3)[C@H](C)OC2=O)c1OCOC(C)=O [Compound 106],80 to 100%,80 to 100%,80 to 100%,80 to 100%,80 to 100%,
COc1ccnc(C(=O)N[C@H]2COC[C@H](Cc3ccccc3)[C@@H](Oc3ccccc3)[C@H](C)OC2=O)c1OCOC(C)=O [Compound 40],80 to 100%,80 to 100%,80 to 100%,80 to 100%,,80 to 100%
COc1ccnc(C(=O)N[C@H]2COC[C@H](Cc3ccccc3)[C@@H](OCCC(C)OC)[C@H](C)OC2=O)c1OCOC(C)=O (stereo partly shown) [Compound 46],,80 to 100%,80 to 100%,80 to 100%,,80 to 100%
COc1ccnc(C(=O)N[C@H]2COC[C@H](Cc3ccccc3)[C@@H](OCC(C)C)[C@H](C)OC2=O)c1OCOC(=O)C(C)C [Compound 3],80 to 100%,80 to 100%,80 to 100%,80 to 100%,80 to 100%,
"COc1ccnc(C(=O)N[C@H]2COC[C@H](Cc3ccccc3)[C@@H](OCC(C)C)[C@H](C)OC2=O)c1OC(=O)OC(C)C [Compound 10, 2-(((3S,7S,8R,9S)-7-benzyl-8-isobutoxy-9-methyl-2-oxo-1,5-dioxonan-3-yl)carbamoyl)-4-methoxypyridin-3-yl isopropyl carbonate]",,80 to 100%,80 to 100%,80 to 100%,80 to 100%,
COc1ccnc(C(=O)N[C@H]2COC[C@H](Cc3ccccc3)[C@@H](OCC(F)F)[C@H](C)OC2=O)c1OCOC(C)=O [Compound 44],,0 to 80%,80 to 100%,80 to 100%,,80 to 100%
"COc1ccnc(C(=O)N[C@H]2COC[C@H](Cc3ccccc3)[C@@H](OCC(C)C)[C@H](C)OC2=O)c1OC(C)=O [Compound 9, 2-(((3S,7S,8R,9S)-7-benzyl-8-isobutoxy-9-methyl-2-oxo-1,5-dioxonan-3-yl)carbamoyl)-4-methoxypyridin-3-yl acetate]",,80 to 100%,80 to 100%,80 to 100%,80 to 100%,
